Where a name gives a salt, the structure may show the parent alone.
Experiments:
[1] = tested on: Klebsiella aerogenes; assay: bioautography zone diameter (cellulose TLC); assay type: cell-based; conditions: butanol/isopropyl alcohol/water 7:7:6
[2] = tested on: Bacillus subtilis; assay: bioautography zone diameter (cellulose TLC); assay type: cell-based; conditions: butanol/isopropyl alcohol/water 7:7:6
[3] = target: Escherichia coli β-lactamase (Escherichia coli, UniProt P62593); assay: β-lactamase inhibition (qualitative); assay type: biochemical
Sequence of Escherichia coli β-lactamase (P62593 24-286 limits assumed): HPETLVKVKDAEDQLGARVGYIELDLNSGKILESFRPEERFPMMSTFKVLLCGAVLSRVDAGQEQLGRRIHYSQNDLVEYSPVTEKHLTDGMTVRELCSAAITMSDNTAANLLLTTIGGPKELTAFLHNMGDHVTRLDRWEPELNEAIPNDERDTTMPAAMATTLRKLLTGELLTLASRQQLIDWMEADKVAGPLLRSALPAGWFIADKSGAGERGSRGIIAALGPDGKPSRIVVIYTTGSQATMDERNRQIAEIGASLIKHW
Description: In a further experiment, the two substances were separated on a cellulose thin layer developed with isopropanol:water (8:2) and extracted from the cellulose with phosphate buffer.

[4] = tested on: Escherichia coli 10418; assay: bioautography zone diameter (cellulose TLC); assay type: cell-based; conditions: butanol/isopropyl alcohol/water 7:7:6
[5] = tested on: B. subtilis, Staphylococcus aureus, Escherichia coli, Salmonella typhimurium, Proteus mirabilis, Proteus morganii and Klebsiella aerogenes; assay: detection by bioautography after cellulose TLC (qualitative); assay type: cell-based, various bacterial species; conditions: n-butanol:isopropanol:water 7:7:6
[6] = solubility; conditions: sodium salt
[7] = tested on: β-lactamase of Escherichia coli B11; assay: I50 determination: inhibition of hydrolysis of ampicillin by E. coli B11 β-lactamase (starch-iodometric assay); assay type: biochemical; conditions: MM 4550A
Description: This β-lactamase is classified as a type IIIa enzyme according to the classification of Richmond and Sykes [Adv. in Microbiol.Physiol. 9 31 (1973)]
The rate of β-lactamase hydrolysis of ampicillin to its penicilloic acid can be followed by a starch-iodometric assay in which one measures the rate of formation of penicilloic acid by following the decolorization of a starch-iodine complex. This method and the preparation of the β-lactamase are described in a paper by Cole M., Elson S., and Fullbrook P.D. (Biochemical Journal 1972, 127, 295-308). […] The procedure was as follows:
Buffer: 0.05M pH7 potassium phosphate buffer
Prepared from E. coli B11 as described by Cole
Enzyme: et al, Biochem. J. (1972) 127, 295. The dilution
of the enzyme preparation in buffer was such as
to give a fall of about 0.3 optical density
units per 100 secs. in the uninhibited reaction.
The reactions were carried out in 1 cm cuvettes at 37° C. in an SP 800 Pye Unicam spectrophotometer. This instrument can carry four sample cuvettes and their corresponding blanks. The first cuvette was used for the control reaction and contained no inhibitor. The 2nd, 3rd and 4th cuvettes were used for various dilutions of the inhibitor.
Inhibitor of buffer 0.1 ml 0.1 ml
Substrate (added after incubation […]

[8] = target: β-lactamases produced by Staphylococcus aureus (Staphylococcus aureus, UniProt P00807); assay: β-lactamase inhibition (qualitative); assay type: biochemical
Sequence of β-lactamases produced by Staphylococcus aureus (P00807 25-281): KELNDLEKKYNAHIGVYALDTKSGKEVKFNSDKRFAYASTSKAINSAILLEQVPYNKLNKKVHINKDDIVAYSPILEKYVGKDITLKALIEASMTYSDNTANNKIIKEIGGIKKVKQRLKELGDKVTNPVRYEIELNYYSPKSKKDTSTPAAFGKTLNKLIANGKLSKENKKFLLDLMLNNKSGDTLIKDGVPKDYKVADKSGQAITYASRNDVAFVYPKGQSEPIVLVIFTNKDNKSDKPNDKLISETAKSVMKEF

[9] = tested on: Staphylococcus aureus (Oxford); assay: bioautography zone diameter (cellulose TLC); assay type: cell-based; conditions: butanol/isopropyl alcohol/water 7:7:6
[10] = tested on: Escherichia coli, Klebsiella aerogenes, Proteus mirabilis, Proteus morganii and Staphylococcus aureus Russell; assay: synergy with ampicillin (qualitative); assay type: cell-based
[11] = tested on: various species including strains of Staphylococcus aureus, Bacillus subtilis, Escherichia coli, Klebsiella aerogenes, Proteus mirabilis; assay: antibacterial activity (qualitative); assay type: cell-based, various bacterial species; conditions: sodium salt, inter alia S. aureus, B. subtilis, E. coli, K. aerogenes, P. mirabilis
[12] = tested on: Enterobacter aerogenes; assay: bioautography zone diameter (cellulose TLC); assay type: cell-based; conditions: butanol/isopropyl alcohol/water 7:7:6
[13] = tested on: Proteus morganii; assay: bioautography zone diameter (cellulose TLC); assay type: cell-based; conditions: butanol/isopropyl alcohol/water 7:7:6
[14] = tested on: Staphylococcus aureus (Russell); assay: bioautography zone diameter (cellulose TLC); assay type: cell-based; conditions: butanol/isopropyl alcohol/water 7:7:6
[15] = tested on: β-lactamases produced by Klebsiella aerogenes; assay: β-lactamase inhibition (qualitative); assay type: biochemical
[16] = specific activity relative to culture filtrate (arbitrary units)
Procedure: The material produced above was arbitrarily assigned an activity of 340 1/ml. Assays were determined as described in Description 3.

[17] = stability; assay type: physicochemical; conditions: monobasic salts and free acid
[18] = tested on: Staph. aureus (Russell H); assay: MIC, serial dilution in nutrient agar, synergism with ampicillin; assay type: cell-based; conditions: alone
[19] = tested on: Proteus mirabilis 889; assay: as above; assay type: cell-based; conditions: alone
[20] = tested on: Proteus mirabilis 247; assay: as above; assay type: cell-based; conditions: alone
[21] = tested on: Proteus rettgeri R110; assay: as above; assay type: cell-based; conditions: alone
[22] = tested on: E. coli B11; assay: as above; assay type: cell-based; conditions: alone
[23] = tested on: Staph. aureus (Russell); assay: as above; assay type: cell-based; conditions: alone
[24] = tested on: E. coli JT39; assay: as above; assay type: cell-based; conditions: alone

For `CC(=O)N/C=C/[S+]([O-])C1=C(C(=O)O)N2C(=O)C(C(C)OS(=O)(=O)O)C2C1` (stereo not shown) [MM 4550A], the “Zone Diameter on Bioautography” value [1] was 20.0 mm, the “Zone Diameter on Bioautography” value [2] was 24.0 mm and the “enzyme inhibitory activity against β-lactamase” value (“enzyme inhibitory activity” for short) [3] was “possesses enzyme inhibitory activity”. The “Zone Diameter on Bioautography” value [4] was 20.0 mm, the detection by bioautography [5] was “may be detected by bioautography on a variety of organisms” and the “solubility in chloroform, diethylether and hydrocarbons” value [6] was “substantially insoluble”. The solubility in methanol [6] was “soluble”, the solubility in water [6] was “highly soluble” and the I50 [7] was “less than 0.0001 μg/ml”. The “enzyme inhibitory activity” value [8] was “possesses enzyme inhibitory activity”, the “Zone Diameter on Bioautography” value [9] was 13.0 mm and the “synergy when mixed with ampicillin” value [10] was “synergyses its activity”. For the same molecule, the “antibacterial activity against various species” value ([11]; Acinetobacter anitratus, Serratia, Shigella sonnei) was “possesses antibacterial activity”, the “Zone Diameter on Bioautography” value [12] was 6.5 mm and the “Zone Diameter on Bioautography” value [13] was 16.0 mm. For the same molecule, the “Zone Diameter on Bioautography” value [14] was 12.0 mm and the “enzyme inhibitory activity” value [15] was “possesses enzyme inhibitory activity”.
In the case of `CC(=O)N/C=C/SC1=C(C(=O)O)N2C(=O)C(C(C)OS(=O)(=O)O)C2C1` (stereo not shown) [MM 13902 di-sodium salt], the activity ([16]; after cellulose chromatography, yellowish powder) is reported as 73,000 units/mg.
With `CC(=O)N/C=C/SC1=C(C(=O)O)N2C(=O)C(C(C)OS(=O)(=O)O)C2C1` (stereo not shown) [MM 13902] the detection by bioautography [5] was “may be detected by bioautography on a variety of organisms”, the “stability to isolation from mixtures such as MM 4550 (Complex)” value [17] was “not sufficiently stable to isolate from mixtures” and the “solubility in chloroform, diethylether and hydrocarbons” value [6] was “substantially insoluble”. For the same molecule, the solubility in methanol [6] was “soluble”, the solubility in water [6] was “highly soluble” and the “synergy when mixed with ampicillin” value [10] was “synergizes its activity”. For the same molecule, the “antibacterial activity against various species” value ([11]; Salmonella typhi, Ps. aeruginosa) was “possessed antibacterial activity”, the “Zone Diameter on Bioautography” value [12] was “No Zone” and the activity ([16]; partially purified, after Amberlite XAD 4) was 37,000 units/mg.
`CC1(C)S[C@@H]2[C@H](NC(=O)[C@H](N)c3ccccc3)C(=O)N2[C@H]1C(=O)O` [Ampicillin, ampicillin] gave a minimum inhibitory concentration [18] greater than 500, a minimum inhibitory concentration [19] greater than 500 and a minimum inhibitory concentration [20] greater than 500. It also gave a minimum inhibitory concentration [21] of 250, a minimum inhibitory concentration [22] greater than 500 and a minimum inhibitory concentration [23] of 250. For the same molecule, the minimum inhibitory concentration [24] was greater than 500.

— US4205067A, “Antibiotics” (priority 1974, dated 1980)
